Source: patent US20220282217A1, “COMPOSITIONS AND METHODS FOR PREPARING T CELL COMPOSITIONS AND USES THEREOF” (priority 2019, published 2022)
Like-named read-outs stand apart in the source and are kept apart here. Where a SMILES comes first, the peptide text is derived from it.

Experiments:
[1] = target: HLA-A01.01 (Homo sapiens, UniProt P04439, A114D/A174V/A182V/D101N/D185E/E176A/E190D/L180R/Q94H/R68K/S129P/T187R/V100A/V91M/W191G); assay: Class I MHC peptide binding affinity (displacement of radiolabeled reference peptide)
Summary of the method: (§1)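 Read-out: radioactivity of reference peptide retained on MHCI, separated from free label by gel-filtration size exclusion. Competing peptides are titrated against the preformed complexes and incubated two days beforehand.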

[2] = target: HLA-A11.01 (Homo sapiens, UniProt P04439, A114D/D185E/E176A/F33Y/L180Q/S129P/T187R); assay: as above
[3] = target: T1, HLA-A01.01 (Homo sapiens, UniProt P04439, A114D/A174V/A182V/D101N/E190D/Q94H/R68K/S129P/V100A/V91M/W191G); assay: Class I MHC peptide binding stability (pMHC-I dissociation, 125I-labeled light chain)
T1 construct: made in house; host or cells: E. coli

[4] = target: T2, HLA-A03.01 (Homo sapiens, UniProt P04439); assay: as above; set-up: made in house; host or cells: E. coli; details: HLA Allele A03.01; for Stability (half-life (hr.)): BTK C481S peptide; for Measured stability: time for half of the complexes to dissociate at 37° C.
[5] = target: T2, HLA-A03.01; assay: Class I MHC peptide binding affinity (displacement of radiolabeled reference peptide)
[6] = target: HLA-B07.02 (Homo sapiens, UniProt P01889); assay: as above
[7] = target: 293T cells transduced with GATA3 neoORF, expressing the HLA of interest (Homo sapiens, UniProt P01889); assay: Presentation of GATA3 neoantigens: HLA-eluted peptides by targeted MS/MS (PRM) (Table 14); assay type: cell-based; details: GATA3 neoORF transduced 293T cells expressing HLA-B*07:02 protein
Protocol: To assess whether antigens could be processed and presented from the larger polypeptide context, peptides eluted from HLA molecules isolated from cells expressing the genes of interest were analyzed by tandem mass spectrometry (MS/MS).
Between 50 and 700 million of the transduced cells expressing peptides encoded by the GATA3 neoORF sequence were cultured and peptides were eluted from HLA-peptide complexes using an acid wash. Eluted peptides were then analyzed by targeted MS/MS using PRM. Spectral comparison between peptides derived from GATA3 neoORF and corresponding synthetic peptides were performed to confirm each detection.

[8] = target: T3, HLA-A11.01 (Homo sapiens, UniProt P04439, A114D/F33Y/S129P); assay: Class I MHC peptide binding stability (pMHC-I dissociation, 125I-labeled light chain); details: HLA Allele A11.01; time for half of the complexes to dissociate at 37° C.
T3 construct: made in house; host or cells: E. coli

[9] = target: T4, HLA-B08.01 (Homo sapiens, UniProt P01889, A93T/A95T/D138N/E176V/E187T/K202T/Q94N/R180D/S35A/V36M/Y33D/Y91F); assay: Class I MHC peptide binding affinity (displacement of radiolabeled reference peptide)
Summary of the method: as §1

[10] = target: HLA-A02.01 (Homo sapiens, UniProt P04439, D140Y/D185E/D98H/E176V/E277Q/G131W/G231S/I119V/I121R/I166T/I218V/L300P/L318F/N151K/N90K/P208A/P217A/Q86G/Q94H/R138H/R169H/T345S); assay: as above; details: Observed Affinity (IC50; (nM)), allele A02.01
Summary of the method: as §1

[11] = target: T4, HLA-B08.01; assay: Class I MHC peptide binding stability (pMHC-I dissociation, 125I-labeled light chain); details: Allele B08.01
[12] = target: T5, HLA-A02.01 (Homo sapiens, UniProt P04439, D140Y/D185E/D98H/E176V/E277Q/G131W/G231S/I119V/I121R/I166T/I218V/N151K/N90K/P208A/P217A/Q86G/Q94H/R138H/R169H); assay: as above; details: allele A02.01
T5 construct: made in house; host or cells: E. coli

[13] = BTK C481S peptide, HLA Allele A01.01
[14] = Allele B07.02, read-out: Observed Affinity (IC50, (nM))
[15] = Observed Affinity (IC50, (nM)), allele A01.01

`CSCC[C@H](NC(=O)[C@@H](N)Cc1ccc(O)cc1)C(=O)N[C@@H](C)C(=O)N[C@@H](CC(N)=O)C(=O)NCC(=O)N[C@@H](CO)C(=O)N[C@@H](CC(C)C)C(=O)N[C@@H](CC(C)C)C(=O)N[C@@H](CC(N)=O)C(=O)N[C@@H](Cc1ccc(O)cc1)C(=O)O` (H-YMANGSLLNY-OH; N-terminus and C-terminus assumed) gave an IC50 ([1]; BTK C481S peptide, HLA Allele A01.01, read-out: Affinity) of 13.2 nM, an IC50 ([1]; allele A01.01, read-out: Observed Affinity (IC50, (nM))) of 13.2 nM and an IC50 ([2]; BTK C481S peptide, HLA Allele A11.01, read-out: Affinity) of 0.974 µM. The “Stability (half-life (hr.))” value [3, 13] was 51.97 min, the “Stability (half-life (hr.))” value [4] was 16.75 min and the IC50 ([5]; BTK C481S peptide, HLA Allele A03.01, read-out: Affinity) was 95.9 nM. The IC50 ([5]; allele A03.01, read-out: Observed Affinity (IC50, (nM))) was 95.9 nM.

`CSCC[C@H](NC(=O)[C@H](Cc1ccc(O)cc1)NC(=O)CNC(=O)[C@H](CC(=O)O)NC(=O)[C@H](CCCNC(=N)N)NC(=O)[C@H](CCCCN)NC(=O)[C@@H]1CCCN1C(=O)[C@@H](N)CCCCN)C(=O)N[C@@H](Cc1ccccc1)C(=O)O` (H-KPKRDGYMF-OH; N-terminus and C-terminus assumed) was tested, and the IC50 [6, 14] was 28.2 nM and the “detected by mass spectrometry (peptide eluted from HLA-peptide complexes)” value [7] was “detected”.

`CC(C)[C@H](N)C(=O)N[C@H](C(=O)NCC(=O)N[C@@H](C)C(=O)N[C@@H](CC(=O)O)C(=O)NCC(=O)N[C@H](C(=O)NCC(=O)N[C@@H](CCCCN)C(=O)O)C(C)C)C(C)C` was tested, and the “Measured stability” value [8] was 3.4 h.

For `CSCC[C@H](N)C(=O)N[C@@H](C)C(=O)N[C@@H](CC(N)=O)C(=O)NCC(=O)N[C@@H](CO)C(=O)N[C@@H](CC(C)C)C(=O)N[C@@H](CC(C)C)C(=O)N[C@@H](CC(N)=O)C(=O)N[C@@H](Cc1ccc(O)cc1)C(=O)O`, the IC50 ([1]; Affinity (nM), BTK C481S peptide, HLA Allele A01.01) was 439 nM, the IC50 [1, 15] was 439 nM and the IC50 [2] was 0.536 µM. For the same compound, the “Stability (half-life (hr.))” value [3, 13] was 12.98 min, the “Stability (half-life (hr.))” value [4] was 14.3 min and the IC50 ([5]; Affinity (nM), BTK C481S peptide, HLA Allele A03.01) was 35.6 nM. The IC50 ([5]; Observed Affinity (IC50, (nM)), allele A03.01) was 35.6 nM.

In the case of `CC[C@H](C)[C@H](NC(=O)[C@H](CC(C)C)NC(=O)[C@H](CCC(N)=O)NC(=O)[C@@H](NC(=O)[C@@H](NC(=O)[C@H](CO)NC(=O)[C@@H](NC(=O)[C@@H](N)CC(C)C)[C@@H](C)O)[C@@H](C)O)C(C)C)C(=O)N[C@@H](CCSC)C(=O)O` (H-LTSTVQLIM-OH; N-terminus and C-terminus assumed), the Kd [1] is reported as 2.89 µM, the IC50 [1, 15] is reported as 2890 nM and the “Stability (half-life (hr.))” value ([3]; EGFR T790M peptides, HLA allele A01.01) is reported as 6.222 min.

`CC(C)[C@H](N)C(=O)N[C@H](C(=O)N[C@H](C(=O)NCC(=O)N[C@@H](C)C(=O)N[C@@H](CC(=O)O)C(=O)NCC(=O)N[C@H](C(=O)NCC(=O)N[C@@H](CCCCN)C(=O)O)C(C)C)C(C)C)C(C)C` was tested, and the “Measured stability” value [8] was 13.0 h and the “Measured stability” value [4] was 2.3 h.

`CC(C)[C@H](N)C(=O)N[C@H](C(=O)NCC(=O)N[C@@H](C)C(=O)N[C@@H](CS)C(=O)NCC(=O)N[C@H](C(=O)NCC(=O)N[C@@H](CCCCN)C(=O)O)C(C)C)C(C)C` was tested, and the “Measured stability” value [8] was 10.0 h and the “Measured stability” value [4] was 5.0 h.

`CC[C@H](C)[C@H](NC(=O)[C@H](Cc1ccc(O)cc1)NC(=O)[C@H](CCCCN)NC(=O)CNC(=O)[C@H](CCCNC(=N)N)NC(=O)[C@H](CCCCN)NC(=O)[C@H](Cc1c[nH]cn1)NC(=O)[C@H](CC(C)C)NC(=O)[C@@H](N)Cc1c[nH]c2ccccc12)C(=O)O` (H-WLHKRGKYI-OH; N-terminus and C-terminus assumed) was tested, and the IC50 [9] was 0.417 µM, the IC50 [10] was 1250 nM and the IC50 [6] was 2650 nM. For the same compound, the “Stability (T1/2 (h))” value [11] was 1.3 h and the “Stability (T1/2 (h))” value [12] was 1.2 h.

For `CSCC[C@H](NC(=O)[C@H](Cc1ccc(O)cc1)NC(=O)CNC(=O)[C@H](CC(=O)O)NC(=O)[C@H](CCCNC(=N)N)NC(=O)[C@H](CCCCN)NC(=O)[C@@H]1CCCN1C(=O)[C@@H](N)CCCCN)C(=O)N[C@@H](Cc1ccccc1)C(=O)N[C@@H](CC(C)C)C(=O)O` (H-KPKRDGYMFL-OH; N-terminus and C-terminus assumed), the IC50 [6, 14] was 98.1 nM and the “detected by mass spectrometry (peptide eluted from HLA-peptide complexes)” value [7] was “detected”.
